# Test results as given in ChEMBL document CHEMBL1201862, “PubChem BioAssay data set” (2004).
# The source made the active and inactive calls.
# Tested on: not listed separately
# Test: luciferase reporter signal suppression in cells – H4 neuroglioma cells, luminescence, dose response (AID 1990)
# Format: functional, cell-based
# Settings: not given
row,SMILES,EC50
1,CCOC(=O)c1[nH]c2ccccc2c1NC(=O)c1ccc(S(=O)(=O)N2CCCCC2)cc1,18.7 µM (active)
2,CCN1CCN(c2cc3nc(C)n(Cc4ccccc4)c(=O)c3cc2NC(=O)c2ccccc2F)CC1,8.04 µM (active)
3,Cc1c(C(=O)NCCCN2CCCCC2)oc2ccc3c(c12)C(O)CC1(CCCCC1)O3 (configuration not stated),> 120 µM (not active)
4,Cn1c(=O)[nH]c(=O)c2c1nc(N1CCC(Cc3ccccc3)CC1)n2Cc1ccccc1,19.4 µM (active)
5,COC(=O)c1ccc(CSc2nc(O)c3cnn(-c4ccc(C)cc4)c3n2)o1,23.9 µM (active)
6,CCC(C)(C)n1nnnc1CN(Cc1cccs1)Cc1cc2cc(OC)ccc2nc1O,30.6 µM (active)
7,Cc1ccccc1CN(C)CC(=O)Nc1cccc(S(=O)(=O)N(C)c2ccccc2)c1,> 120 µM (not active)
8,Cc1csc2ncnc(N3CCN(C(S)=Nc4ccc(C(F)(F)F)cc4)CC3)c12,> 120 µM (not active)
9,Nc1nc(OCC2CCCCC2)c2nc[nH]c2n1,16.5 µM (active)
10,O=C1C2C3C=CC(C3)C2C(=O)N1/N=C/c1cn(Cc2ccccc2)c2ccccc12 (configuration not stated),11 µM (active)

# Tested on: Streptococcus sp. 'group A'
# Test: Streptococcus pyogenes SK(-)GAS viability under kanamycin – luminescence, BacTiterGlo, confirmation, counter-screen for streptokinase expression inhibitor project, dose response (AID 1900)
# Format: functional, organism-based
# Settings: not given
row,SMILES,EC50
1,Cn1c(=O)[nH]c(=O)c2c1nc(N1CCC(Cc3ccccc3)CC1)n2Cc1ccccc1,4.39 µM (active)

# Tested on: not listed separately
# Test: Luminescence Cell-Based Dose Response HTS to Identify Inhibitors of 5'UTR Stem-Loop Driven Prion Protein mRNA Translation in H4 Neuroglioblastoma Cells. [Related pubchem assays: 1827 (Project Summary), 1813 (Primary HTS)]
# Format: functional
# Settings: not given
row,SMILES,EC50
1,CCOC(=O)c1[nH]c2ccccc2c1NC(=O)c1ccc(S(=O)(=O)N2CCCCC2)cc1,> 120 µM (not active)
2,CCN1CCN(c2cc3nc(C)n(Cc4ccccc4)c(=O)c3cc2NC(=O)c2ccccc2F)CC1,8.79 µM (active)
3,Cc1c(C(=O)NCCCN2CCCCC2)oc2ccc3c(c12)C(O)CC1(CCCCC1)O3 (configuration not stated),> 120 µM (not active)
4,Cn1c(=O)[nH]c(=O)c2c1nc(N1CCC(Cc3ccccc3)CC1)n2Cc1ccccc1,> 120 µM (not active)
5,COC(=O)c1ccc(CSc2nc(O)c3cnn(-c4ccc(C)cc4)c3n2)o1,> 120 µM (not active)
6,CCC(C)(C)n1nnnc1CN(Cc1cccs1)Cc1cc2cc(OC)ccc2nc1O,> 120 µM (not active)
7,Cc1ccccc1CN(C)CC(=O)Nc1cccc(S(=O)(=O)N(C)c2ccccc2)c1,> 120 µM (not active)
8,Cc1csc2ncnc(N3CCN(C(S)=Nc4ccc(C(F)(F)F)cc4)CC3)c12,> 120 µM (not active)
9,Nc1nc(OCC2CCCCC2)c2nc[nH]c2n1,15.8 µM (active)
10,O=C1C2C3C=CC(C3)C2C(=O)N1/N=C/c1cn(Cc2ccccc2)c2ccccc12 (configuration not stated),12.5 µM (active)

# Tested on: not listed separately
# Test: alpha-synuclein stem-loop luciferase translation blockers – H4 neuroglioma cells, luminescence, confirmation (AID 1988)
# Format: functional, cell-based
# Settings: not given
row,SMILES,EC50
1,CCOC(=O)c1[nH]c2ccccc2c1NC(=O)c1ccc(S(=O)(=O)N2CCCCC2)cc1,83.1 µM (active)
2,CCN1CCN(c2cc3nc(C)n(Cc4ccccc4)c(=O)c3cc2NC(=O)c2ccccc2F)CC1,8.28 µM (active)
3,Cc1c(C(=O)NCCCN2CCCCC2)oc2ccc3c(c12)C(O)CC1(CCCCC1)O3 (configuration not stated),> 120 µM (not active)
4,Cn1c(=O)[nH]c(=O)c2c1nc(N1CCC(Cc3ccccc3)CC1)n2Cc1ccccc1,56.4 µM (active)
5,COC(=O)c1ccc(CSc2nc(O)c3cnn(-c4ccc(C)cc4)c3n2)o1,> 120 µM (not active)
6,CCC(C)(C)n1nnnc1CN(Cc1cccs1)Cc1cc2cc(OC)ccc2nc1O,> 120 µM (not active)
7,Cc1ccccc1CN(C)CC(=O)Nc1cccc(S(=O)(=O)N(C)c2ccccc2)c1,> 120 µM (not active)
8,Cc1csc2ncnc(N3CCN(C(S)=Nc4ccc(C(F)(F)F)cc4)CC3)c12,> 120 µM (not active)
9,Nc1nc(OCC2CCCCC2)c2nc[nH]c2n1,13.7 µM (active)
10,O=C1C2C3C=CC(C3)C2C(=O)N1/N=C/c1cn(Cc2ccccc2)c2ccccc12 (configuration not stated),2.2 µM (active)

# Molecular target: T1, Streptokinase A (Streptococcus pyogenes serotype M1, UniProt P10520)
# T1 sequence (P10520 whole entry): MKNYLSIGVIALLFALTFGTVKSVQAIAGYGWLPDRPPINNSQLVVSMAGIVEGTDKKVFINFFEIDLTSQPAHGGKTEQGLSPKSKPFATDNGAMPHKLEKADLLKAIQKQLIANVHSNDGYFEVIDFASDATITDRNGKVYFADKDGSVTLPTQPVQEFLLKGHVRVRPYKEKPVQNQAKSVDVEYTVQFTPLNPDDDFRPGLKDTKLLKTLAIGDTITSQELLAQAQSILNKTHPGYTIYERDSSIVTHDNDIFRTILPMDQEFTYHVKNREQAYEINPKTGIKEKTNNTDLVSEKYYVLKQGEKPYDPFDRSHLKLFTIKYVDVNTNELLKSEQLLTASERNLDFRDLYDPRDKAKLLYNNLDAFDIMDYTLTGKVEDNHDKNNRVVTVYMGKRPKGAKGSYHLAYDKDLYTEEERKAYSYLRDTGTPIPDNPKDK
# Test: viability-normalized secreted streptokinase activity reduction – plasminogen activation absorbance, OD405, dose response (AID 1914);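 also: secreted streptokinase activity via plasminogen activation per viability signal from cell pellet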
# Format: functional, Streptococcus pyogenes M1 GAS
# Settings: not given
row,SMILES,EC50
1,Cn1c(=O)[nH]c(=O)c2c1nc(N1CCC(Cc3ccccc3)CC1)n2Cc1ccccc1,18 µM (active)

# Tested on: not listed separately
# Test: Trypanosoma cruzi growth suppression in host cells – NIH3T3 host cells, beta-gal luminescence, confirmation (AID 2044);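 also: intracellular parasites grown in NIH/3T3 mouse fibroblasts as host cells; luminescent beta-galactosidase reporter signal from transgenic T. cruzi replicating inside host cells; inhibitors lower the luminescence signal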
# Format: functional, cell-based
# Settings: not given
row,SMILES,EC50
1,CCC[N+]1(CC#CCC(c2ccccc2)c2ccccc2)CCCCC1,0.767 µM (active)

# Tested on: not listed separately
# Test: NIH3T3 cell viability loss – ATP luminescence, mouse fibroblasts, counter-screen, dose response (AID 2010);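 also: cells exposed to compound for about 90 hours before reading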
# Format: functional, cell-based
# Settings: not given
row,SMILES,EC50
1,CCC[N+]1(CC#CCC(c2ccccc2)c2ccccc2)CCCCC1,> 60 µM (not active)

# Tested on: Streptococcus
# Test: GAS UMAA2166 growth inhibition – luminescence, BacTiterGlo, counter-screen for streptokinase expression inhibitor project, dose response (AID 1915);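 also: potency for reduction of bacterial viability or growth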
# Format: functional, organism-based
# Settings: not given
row,SMILES,EC50
1,Cn1c(=O)[nH]c(=O)c2c1nc(N1CCC(Cc3ccccc3)CC1)n2Cc1ccccc1,> 150 µM (not active)

# Tested on: not listed separately
# Test: Luminescence Cell-Based Dose Retest to Confirm Inhibitors of Cancer Stem Cells. [Related pubchem assays (depositor defined):AID2717, AID2721]
# Format: functional
# Settings: Homo sapiens
row,SMILES,AC50
1,CC(=O)Oc1ccc(C(=O)Nc2ccc(C3(C#N)CCCC3)cc2)cc1,1.83 µM (active)
2,CC(C)c1cc(-c2cc(-c3ccccc3)on2)nc(NC2CCCC2)n1,10.1 µM (active)
3,O=C(c1ccc(Cl)cc1)c1c[nH]c(C(=O)NNc2ccccc2)c1,1.34 µM (active)
4,CC(C)(C)c1ccc(NC(=O)N2CCCN(c3c(Cl)cncc3Cl)CC2)cc1,0.601 µM (active)

# Molecular target: FAD-linked sulfhydryl oxidase ALR (Homo sapiens, UniProt P55789)
# Test: ALR-catalysed DTT oxidation blockers – biochemical, H2O2 detection, luminescence, cherry-pick, dose response (AID 493248)
# Settings: not given
# FAD-linked sulfhydryl oxidase ALR, sequence (P55789 whole entry): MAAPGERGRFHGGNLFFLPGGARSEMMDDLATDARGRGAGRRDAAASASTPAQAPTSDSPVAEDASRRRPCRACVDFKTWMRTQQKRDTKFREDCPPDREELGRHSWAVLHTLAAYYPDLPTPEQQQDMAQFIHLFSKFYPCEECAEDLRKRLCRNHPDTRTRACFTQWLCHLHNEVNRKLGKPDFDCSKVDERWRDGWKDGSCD
row,SMILES,AC50
1,c1ccc2c(CCNc3ncnc4nc[nH]c34)c[nH]c2c1,3.85 µM (active)
2,Cn1c(-c2ccc3nc(N)sc3c2)nc2cc(N)ccc21,0.384 µM (active)
3,O=C(NCC(c1cccnc1)N1CCN(c2ccccc2)CC1)C1CCCCC1 (configuration not stated),19.4 µM (active)
4,CCN(CC)c1ccc(CN2CCCCCC2)cc1,3.84 µM (active)
5,CCN(CCCNC(=O)C1CCC(=O)N1Cc1ccc(C)cc1)c1cccc(C)c1 (configuration not stated),0.677 µM (active)

# Molecular target: Cytochrome P450 2C19 (Homo sapiens, UniProt P33261)
# Test: Cytochrome panel assay with activity outcomes. Panel member name: p450-cyp2c19 Compounds with AC50 equal or less than 10 uM are considered active
# Format: functional
# Settings: read-out: AC50
# Cytochrome P450 2C19, sequence (P33261 whole entry): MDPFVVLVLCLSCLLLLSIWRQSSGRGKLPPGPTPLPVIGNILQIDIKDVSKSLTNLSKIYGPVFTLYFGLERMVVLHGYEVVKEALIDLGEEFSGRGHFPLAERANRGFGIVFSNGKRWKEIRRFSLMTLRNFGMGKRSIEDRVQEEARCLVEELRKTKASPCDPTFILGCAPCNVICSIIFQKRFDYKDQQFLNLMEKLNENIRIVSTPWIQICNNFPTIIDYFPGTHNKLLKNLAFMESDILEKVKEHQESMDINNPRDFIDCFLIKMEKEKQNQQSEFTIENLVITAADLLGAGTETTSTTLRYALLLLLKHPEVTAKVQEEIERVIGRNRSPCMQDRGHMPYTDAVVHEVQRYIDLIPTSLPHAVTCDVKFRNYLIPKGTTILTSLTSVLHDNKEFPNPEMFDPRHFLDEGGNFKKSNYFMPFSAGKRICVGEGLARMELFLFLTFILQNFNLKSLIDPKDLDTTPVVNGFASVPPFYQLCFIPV
row,SMILES,AC50
1,O=C1C2C3C=CC(C3)C2C(=O)N1/N=C/c1cn(Cc2ccccc2)c2ccccc12 (configuration not stated),8.91 µM (inconclusive)

# Tested on: INS1
# Test: INS-1E survival protection against cytokine death – cell-based, luminescence, retest, dose response (AID 449756);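 also: cell death triggered by IL-1 beta plus TNF-alpha plus IFN-gamma mixture; protective hits raise ATP signal compared with cytokine alone wells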
# Format: functional
# Settings: Rattus norvegicus
row,SMILES,AC50
1,CCC[N+]1(CC#CCC(c2ccccc2)c2ccccc2)CCCCC1,1.67 µM (active)

# Molecular target: Cytochrome P450 2D6 (Homo sapiens, UniProt P10635);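 also: CYP2D6 member of a cytochrome P450 panel assay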
# Settings: not given
# Cytochrome P450 2D6, sequence (P10635 whole entry): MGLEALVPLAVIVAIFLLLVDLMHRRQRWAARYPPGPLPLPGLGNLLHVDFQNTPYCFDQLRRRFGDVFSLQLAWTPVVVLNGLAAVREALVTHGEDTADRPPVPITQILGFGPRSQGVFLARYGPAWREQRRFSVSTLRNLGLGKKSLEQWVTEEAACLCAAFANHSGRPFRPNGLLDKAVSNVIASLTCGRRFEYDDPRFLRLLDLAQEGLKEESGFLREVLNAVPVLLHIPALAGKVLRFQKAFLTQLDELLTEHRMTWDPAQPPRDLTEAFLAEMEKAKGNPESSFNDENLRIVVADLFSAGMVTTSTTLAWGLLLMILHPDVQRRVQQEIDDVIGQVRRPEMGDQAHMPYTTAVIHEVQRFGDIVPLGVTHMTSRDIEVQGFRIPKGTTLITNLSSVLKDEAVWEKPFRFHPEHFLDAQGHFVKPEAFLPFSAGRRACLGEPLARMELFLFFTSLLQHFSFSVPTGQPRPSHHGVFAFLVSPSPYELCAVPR
row,SMILES,AC50
1,O=C1C2C3C=CC(C3)C2C(=O)N1/N=C/c1cn(Cc2ccccc2)c2ccccc12 (configuration not stated),39.8 µM (inconclusive)
